Test results as given in article doi:10.1101/641969v1 (biorxiv, 2019).

Assays:
PmCntL = target: T1, PmCntL (Paenibacillus mucilaginosus, UniProt H6NF62); assay: TLC of products from carboxyl-[…]-labeled SAM; assay type: biochemical; conditions: 10 µM D-histidine, 2.5 µM [14C]SAM, pH 9, 28 °C, 30 min
T1 sequence (H6NF62 1-276): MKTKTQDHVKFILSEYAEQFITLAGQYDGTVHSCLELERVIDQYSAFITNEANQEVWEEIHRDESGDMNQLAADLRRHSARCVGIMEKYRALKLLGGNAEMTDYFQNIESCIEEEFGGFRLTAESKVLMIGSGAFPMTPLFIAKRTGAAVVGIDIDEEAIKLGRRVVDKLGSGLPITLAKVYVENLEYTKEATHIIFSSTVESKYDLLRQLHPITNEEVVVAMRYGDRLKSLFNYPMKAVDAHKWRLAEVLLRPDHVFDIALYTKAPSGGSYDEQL

PmCntM = target: T2, PmCntM (Paenibacillus mucilaginosus, UniProt H6NF63); assay: NADPH oxidation at […] nm, initial rates; assay type: biochemical
T2 sequence (H6NF63 1-440): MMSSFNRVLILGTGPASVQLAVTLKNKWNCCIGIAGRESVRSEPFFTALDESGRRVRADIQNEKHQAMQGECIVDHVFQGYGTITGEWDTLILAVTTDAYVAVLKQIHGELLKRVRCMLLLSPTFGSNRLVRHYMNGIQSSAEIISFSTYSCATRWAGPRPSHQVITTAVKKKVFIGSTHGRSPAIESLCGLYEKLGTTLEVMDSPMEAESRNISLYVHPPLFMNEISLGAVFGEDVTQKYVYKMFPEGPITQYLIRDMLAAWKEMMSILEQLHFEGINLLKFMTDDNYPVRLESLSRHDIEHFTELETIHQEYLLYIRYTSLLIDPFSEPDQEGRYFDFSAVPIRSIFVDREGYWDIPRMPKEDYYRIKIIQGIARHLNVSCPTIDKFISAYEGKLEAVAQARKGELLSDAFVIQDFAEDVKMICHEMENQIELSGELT

SaCntM [1] = target: T3, SaCntM (Staphylococcus aureus, UniProt A0A0H3JT80); assay: NADPH oxidation at […] nm, initial rates, Michaelis-Menten fit; assay type: biochemical; conditions: 0.2 mM NADPH, 1 mM pyruvate, pH 7, 28 °C
T3 sequence (A0A0H3JT80 1-433): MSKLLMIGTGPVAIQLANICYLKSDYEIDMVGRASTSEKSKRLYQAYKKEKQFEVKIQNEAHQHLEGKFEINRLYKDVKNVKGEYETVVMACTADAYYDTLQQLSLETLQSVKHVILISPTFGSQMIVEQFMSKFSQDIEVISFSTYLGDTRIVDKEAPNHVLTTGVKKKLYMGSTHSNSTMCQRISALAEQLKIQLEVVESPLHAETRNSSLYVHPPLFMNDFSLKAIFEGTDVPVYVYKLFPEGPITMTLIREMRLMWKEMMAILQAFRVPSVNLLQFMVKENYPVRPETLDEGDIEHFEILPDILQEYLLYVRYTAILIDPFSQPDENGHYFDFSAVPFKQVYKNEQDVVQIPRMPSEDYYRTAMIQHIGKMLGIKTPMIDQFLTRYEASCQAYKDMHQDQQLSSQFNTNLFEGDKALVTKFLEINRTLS

PaCntM [2] = target: T4, PaCntM (Pseudomonas aeruginosa, UniProt Q9HUX5); assay: NADH oxidation at […] nm, initial rates, Michaelis-Menten fit; conditions: 0.2 mM NADH, 1 mM α-ketoglutarate, pH 8, 28 °C
T4 sequence (Q9HUX5 1-433): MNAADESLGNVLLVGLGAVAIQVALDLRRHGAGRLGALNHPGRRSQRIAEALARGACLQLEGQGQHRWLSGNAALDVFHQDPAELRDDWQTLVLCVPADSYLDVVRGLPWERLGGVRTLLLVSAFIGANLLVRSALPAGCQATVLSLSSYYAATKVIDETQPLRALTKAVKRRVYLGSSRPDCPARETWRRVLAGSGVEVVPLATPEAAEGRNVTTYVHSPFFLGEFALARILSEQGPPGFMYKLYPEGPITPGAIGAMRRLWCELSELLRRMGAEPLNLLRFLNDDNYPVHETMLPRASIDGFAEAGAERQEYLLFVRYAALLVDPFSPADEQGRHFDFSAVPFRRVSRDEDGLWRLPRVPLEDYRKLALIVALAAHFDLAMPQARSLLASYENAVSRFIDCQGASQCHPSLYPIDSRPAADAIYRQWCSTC

SaCntM [3] = target: T3, SaCntM; assay: NADPH oxidation at […] nm, initial rates, substrate inhibition model; assay type: biochemical; conditions: 0.2 mM NADPH, 1 mM pyruvate, pH 7, 28 °C
PaCntM [4] = target: T4, PaCntM; assay: NADH oxidation at […] nm, initial rates, substrate inhibition model; assay type: biochemical; conditions: 0.2 mM NADH, 1 mM α-ketoglutarate, pH 8, 28 °C
SaCntM [5] = target: T3, SaCntM; assay: NADPH oxidation at […] nm, initial rates, substrate inhibition model; assay type: biochemical; conditions: 0.2 mM NADPH, 1 mM pyruvate, pH 7, 28 °C; remark: listed apart in the source
PaCntM [6] = target: T4, PaCntM; assay: NADH oxidation at […] nm, initial rates, substrate inhibition model; assay type: biochemical; conditions: 0.2 mM NADH, 1 mM α-ketoglutarate, pH 8, 28 °C; remark: listed apart in the source

N[C@H](Cc1c[nH]cn1)C(=O)O [D-histidine]
TLC of products from carboxyl-[14C]-labeled SAM (PmCntL): PmCntL uses D-His and not L-His

N[C@@H](CCN[C@H](Cc1c[nH]cn1)C(=O)O)C(=O)O [xNA]
Km (PmCntM): 12 ± 1 µM | Km (SaCntM [1]): 23 ± 3 µM | Km (PaCntM [2]): 54 ± 20 µM

N[C@@H](CCN[C@@H](Cc1c[nH]cn1)C(=O)O)C(=O)O [yNA]
Km (PmCntM): 7 ± 1 µM | Ki (SaCntM [3]): 2300 ± 800 µM | Ki (PaCntM [4]): 2400 ± 1000 µM | Km (SaCntM [5]): 47 ± 9 µM | Km (PaCntM [6]): 21 ± 7 µM
